Measured values reported in PMC2118091 (The Journal of Experimental Medicine, 2006).

Tests used:
IgM CM-22 [1] = test: SPR analysis of peptide binding to IgM CM-22; design: species or system mouse
IgM CM-22 [2] = test: Titration of P8 peptide with IgM CM-22; design: species or system mouse; settings: 200 μg IgM CM-22 (0.1–0.2 μM); unpublished data
[3] = tested on: IgM, complement C4 and C3; test: Immunohistology of IgM, C4 and C3 deposition after intestinal RI in WT mice; format: in vivo, mouse; settings: RI-treated WT mice given P8 peptide; unpublished data
WT mice = test: Intestinal RI model in WT mice, pathology score; format: in vivo, mouse; settings: final serum concentration, i.v. 5 min before reperfusion
complement C3 = settings: pretreatment of rats, myocardial infarction model; cited from earlier work

AGCMPYVRIPTA [control peptide, reference compound]
binding to IgM CM-22 surface (IgM CM-22 [1]; SPR, PBS, 25°C, control peptide injected at 117 μM): no binding

NGNNVNGNRNNN [P8 peptide]
optimal peptide concentration sufficient to block IgM CM-22 (IgM CM-22 [2]): ~10 µM
IgM, C4 and C3 deposition within microvilli [3]: colocalized within microvilli of RI-treated WT mice but not in mice administered P8 peptide
CM-22 binding affinity relative to N2 (IgM CM-22 [1]; comparison in words, no KD printed for P8): higher CM-22 binding affinity relative to N2
protective concentration in intestinal RI (WT mice): 10 µM

sCR1: specific soluble inhibitor of complement C3 (sCR1)
myocardial injury (complement C3): dramatically reduced injury
